This is an account of results in patent publication US11098038B2, “Imidazole-based anticancer agents and derivatives thereof, and methods of making and using same” (The University of Toledo, priority 2017, dated 2021).

Compound `O=C(Cc1ccc(/C=C/C(=O)c2ncc[nH]2)cc1)Nc1cccc2ccccc12` [Compound 17, (E)-2-(4-(3-(1H-imidazol-2-yl)-3-oxoprop-1-en-1-yl)phenyl)-N-(naphthalen-1-yl)acetamide] came in with a melting point of 229 to 230 °C.
The value for `COc1ccc(NC(=O)Cc2ccc(/C=C/C(=O)c3ncc[nH]3)cc2)cc1` [Compound 19, (E)-2-(4-(3-(1H-imidazol-2-yl)-3-oxoprop-1-en-1-yl)phenyl)-N-(4-methoxyphenyl) acetamide] was 224 to 226 °C; that for `O=C(Cc1ccc(/C=C/C(=O)c2ncc[nH]2)cc1)Nc1ccccc1` [Compound 21, (E)-2-(4-(3-(1H-imidazol-2-yl)-3-oxoprop-1-en-1-yl)phenyl)-N-phenylacetamide] was 211 to 214 °C.
In the case of `O=C(Cc1ccc(/C=C/C(=O)c2ncc[nH]2)cc1)NC1CCCCC1` [Compound 23, (E)-2-(4-(3-(1H-imidazol-2-yl)-3-oxoprop-1-en-1-yl)phenyl)-N-cyclohexylacetamide], the melting point is 208.5 °C.
The value for `Cn1ccnc1C(=O)/C=C/c1ccc(CC(=O)Nc2ccc(C(F)(F)F)cc2)cc1` [Compound 26, (E)-2-(4-(3-(1-methyl-1H-imidazol-2-yl)-3-oxoprop-1-en-1-yl)phenyl)-N-(4-(trifluoromethyl)phenyl) acetamide] was 222 to 226 °C; that for `Cn1ccnc1C(=O)/C=C/c1ccc(CC(=O)NC2CCCCC2)cc1` [Compound 29, (E)-N-cyclohexyl-2-(4-(3-(1-methyl-1-H-imidazol-2-yl)-3-oxoprop-1-en-1-yl)phenyl) acetamide] was 182.5 °C.
The value for `O=C(Cc1ccc(/C=C/C(=O)c2ncc[nH]2)cc1)Nc1cc(F)c(F)c(F)c1` [Compound 33, (E)-2-(4-(3-(1H-imidazol-2-yl)-3-oxoprop-1-en-1-yl)phenyl)-N-(3,4,5-trifluorophenyl) acetamide] was 255 °C; that for `O=C(Cc1ccc(/C=C/C(=O)c2ncc[nH]2)cc1)Nc1c(F)c(F)c(F)c(F)c1F` [Compound 35, (E)-2-(4-(3-(1H-imidazol-2-yl)-3-oxoprop-1-en-1-yl)phenyl)-N-(perfluorophenyl)acetamide] was 235 °C.
Regarding `O=C(Cc1ccc(/C=C/C(=O)c2ncc[nH]2)cc1)Nc1cc(C(F)(F)F)cc(C(F)(F)F)c1` [Compound 37, (E)-2-(4-(3-(1H-imidazol-2-yl)-3-oxoprop-1-en-1-yl)phenyl)-N-(3,5-bis(trifluoromethyl)phenyl) acetamide], the melting point was determined as 243 °C.
